Laboratory results published in the supplement of paper PMC11061612.

Legend:
AZD1775 = compound: C=CCn1c(=O)c2cnc(Nc3ccc(N4CCN(C)CC4)cc3)nc2n1-c1cccc(C(C)(C)O)n1 [AZD1775]; conditions: max 3 µM
In short: (§1)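 Cancer cell lines were seeded into 1536-well plates in 7.5 μl medium (DMEM/F12 or RPMI, 10% FBS), held 24 hours at 37°C and 5% CO2, and dosed for 72 hours with final DMSO typically 0.2%. Luminescence from CellTiter-Glo 2.0, scaled between blank-well and DMSO-well means, served as viability. The single-agent IC50 was obtained from dose-response fits with a non-linear mixed effects model, each fit being a two-parameter logistic curve.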

Selumetinib = compound: Cn1cnc2c(F)c(Nc3ccc(Br)cc3Cl)c(C(=O)NOCCO)cc21 [Selumetinib]; conditions: max 10 µM
In short: as §1

AZD8186 = compound: C[C@@H](Nc1cc(F)cc(F)c1)c1cc(C(=O)N(C)C)cc2c(=O)cc(N3CCOCC3)oc12 [AZD8186]; conditions: max 3 µM
In short: as §1

AZD6738 = compound: C[C@@H]1COCCN1C2=NC(=NC(=C2)C3(CC3)[S@](=N)(=O)C)C4=C5C=CNC5=NC=C4 [AZD6738]; conditions: max 10 µM
In short: as §1

AZD0156 = compound: CN(C)CCCOc1ccc(-c2ccc3ncc4c(c3c2)n(C2CCOCC2)c(=O)n4C)cn1 [AZD0156]; conditions: max 3 µM
In short: as §1

AZD7648 = compound: Cc1cc2ncnn2cc1Nc1ncc2c(n1)n(C1CCOCC1)c(=O)n2C [AZD7648]; conditions: max 10 µM
In short: as §1

SN-38 = compound: CCc1c2c(nc3ccc(O)cc13)-c1cc3c(c(=O)n1C2)COC(=O)[C@]3(O)CC [SN-38]; conditions: max 0.3 µM
In short: as §1

Venetoclax = compound: CC1(C)CCC(CN2CCN(c3ccc(C(=O)NS(=O)(=O)c4ccc(NCC5CCOCC5)c([N+](=O)[O-])c4)c(Oc4cnc5[nH]ccc5c4)c3)CC2)=C(c2ccc(Cl)cc2)C1 [Venetoclax]; conditions: max 1 µM
In short: as §1

SG3199 = compound: CC1=CN2[C@@H](C1)C=NC3=CC(=C(C=C3C2=O)OC)OCCCCCOC4=C(C=C5C(=C4)N=C[C@@H]6CC(=CN6C5=O)C)OC [SG3199]; conditions: max 0.001 µM
In short: as §1

Capivasertib = compound: C1CN(CCC1(C(=O)N[C@@H](CCO)C2=CC=C(C=C2)Cl)N)C3=NC=NC4=C3C=CN4 [Capivasertib]; conditions: max 10 µM
In short: as §1

Dasatinib = compound: CC1=C(C(=CC=C1)Cl)NC(=O)C2=CN=C(S2)NC3=CC(=NC(=N3)C)N4CCN(CC4)CCO [Dasatinib]; conditions: max 2 µM
In short: as §1

AZD5153 = compound: COc1nnc2ccc(N3CCC(c4ccc(OCCN5CCN(C)C(=O)[C@H]5C)cc4)CC3)nn12 [AZD5153]; conditions: max 1 µM
In short: as §1

Doxorubicin = compound: COc1cccc2c1C(=O)c1c(O)c3c(c(O)c1C2=O)C[C@@](O)(C(=O)CO)C[C@@H]3O[C@H]1C[C@H](N)[C@H](O)[C@H](C)O1 [Doxorubicin]; conditions: max 1 µM
In short: as §1

AZD5991 = compound: Cc1c2c(nn1C)CSCc1cc(n(C)n1)CSc1cc(c3ccccc3c1)OCCCc1c(C(=O)O)n(C)c3c-2c(Cl)ccc13 [AZD5991]; conditions: max 1 µM
In short: as §1

Trametinib = compound: CC(=O)Nc1cccc(-n2c(=O)n(C3CC3)c(=O)c3c(Nc4ccc(I)cc4F)n(C)c(=O)c(C)c32)c1 [Trametinib]; conditions: max 1 µM
In short: as §1

Gefitinib = compound: COc1cc2ncnc(Nc3ccc(F)c(Cl)c3)c2cc1OCCCN1CCOCC1 [Gefitinib]; conditions: max 10 µM
In short: as §1

Alisertib = compound: COc1cc(Nc2ncc3c(n2)-c2ccc(Cl)cc2C(c2c(F)cccc2OC)=NC3)ccc1C(=O)O [Alisertib]; conditions: max 10 µM
In short: as §1

Palbociclib = compound: CC(=O)c1c(C)c2cnc(Nc3ccc(N4CCNCC4)cn3)nc2n(C2CCCC2)c1=O [Palbociclib]; conditions: max 10 µM
In short: as §1

AZD4320 = compound: CN(CC[C@H](CSC1=CC=CC=C1)NC2=C(C=C(C=C2)S(=O)(=O)NC(=O)C3=CC=C(C=C3)N4CCC(CC4)[C@H](C5=CC=CC=C5C6=CC=C(C=C6)Cl)O)S(=O)(=O)C(F)(F)F)CCO [AZD4320]; conditions: max 1 µM
In short: as §1

AZD2811 = compound: CCN(CCO)CCCOc1ccc2c(Nc3cc(CC(=O)Nc4cccc(F)c4)[nH]n3)ncnc2c1 [AZD2811]; conditions: max 1 µM
In short: as §1

Savolitinib = compound: C[C@@H](c1ccc2nccn2c1)n1nnc2ncc(-c3cnn(C)c3)nc21 [Savolitinib]; conditions: max 1 µM
In short: as §1

Prexasertib = compound: COc1cccc(OCCCN)c1-c1cc(Nc2cnc(C#N)cn2)n[nH]1 [Prexasertib]; conditions: max 1 µM
In short: as §1

Olaparib = compound: O=C(c1cc(Cc2n[nH]c(=O)c3ccccc23)ccc1F)N1CCN(C(=O)C2CC2)CC1 [Olaparib]; conditions: max 10 µM
In short: as §1

Taselisib = compound: Cc1nc(-c2cn3c(n2)-c2ccc(-c4cnn(C(C)(C)C(N)=O)c4)cc2OCC3)n(C(C)C)n1 [Taselisib]; conditions: max 10 µM
In short: as §1

Lapatinib = compound: CS(=O)(=O)CCNCc1ccc(-c2ccc3ncnc(Nc4ccc(OCc5cccc(F)c5)c(Cl)c4)c3c2)o1 [Lapatinib]; conditions: max 10 µM
In short: as §1

AZD1390 = compound: CC(C)n1c(=O)n(C)c2cnc3cc(F)c(-c4ccc(OCCCN5CCCCC5)nc4)cc3c21 [AZD1390]; conditions: max 0.3 µM
In short: as §1

Crizotinib = compound: C[C@@H](Oc1cc(-c2cnn(C3CCNCC3)c2)cnc1N)c1c(Cl)ccc(F)c1Cl [Crizotinib]; conditions: max 10 µM
In short: as §1

Row | Cell Line | IC50, cell viability 72 h (AZD1775) | IC50, cell viability 72 h (Selumetinib) | IC50, cell viability 72 h (AZD8186) | IC50, cell viability 72 h (AZD6738) | IC50, cell viability 72 h (AZD0156) | IC50, cell viability 72 h (AZD7648) | IC50, cell viability 72 h (SN-38) | IC50, cell viability 72 h (Venetoclax) | IC50, cell viability 72 h (SG3199) | IC50, cell viability 72 h (Capivasertib) | IC50, cell viability 72 h (Dasatinib) | IC50, cell viability 72 h (AZD5153) | IC50, cell viability 72 h (Doxorubicin) | IC50, cell viability 72 h (AZD5991) | IC50, cell viability 72 h (Trametinib) | IC50, cell viability 72 h (Gefitinib) | IC50, cell viability 72 h (Alisertib) | IC50, cell viability 72 h (Palbociclib) | IC50, cell viability 72 h (AZD4320) | IC50, cell viability 72 h (AZD2811) | IC50, cell viability 72 h (Savolitinib) | IC50, cell viability 72 h (Prexasertib) | IC50, cell viability 72 h (Olaparib) | IC50, cell viability 72 h (Taselisib) | IC50, cell viability 72 h (Lapatinib) | IC50, cell viability 72 h (AZD1390) | IC50, cell viability 72 h (Crizotinib)
1 | JHH-1 (Hepatocellular Carcinoma) | 1270 nM | > 10000 nM | > 3000 nM | > 10000 nM | > 3000 nM | > 10000 nM | > 300 nM | > 1000 nM | > 1 nM | > 10000 nM | > 2000 nM | > 1000 nM | > 1000 nM | > 1000 nM | 410 nM | > 10000 nM | > 10000 nM | > 10000 nM | > 1000 nM | > 1000 nM | > 1000 nM | 259 nM | > 10000 nM | > 10000 nM | > 10000 nM | > 300 nM | > 10000 nM
2 | NCI-H196 (Small Cell Lung Carcinoma) | 2110 nM | > 10000 nM | > 3000 nM | > 10000 nM | > 3000 nM | > 10000 nM | > 300 nM | > 1000 nM | > 1 nM | > 10000 nM | > 2000 nM | > 1000 nM | > 1000 nM | > 1000 nM | > 1000 nM | > 10000 nM | > 10000 nM | > 10000 nM | > 1000 nM | > 1000 nM | > 1000 nM | 170 nM | > 10000 nM | > 10000 nM | > 10000 nM | > 300 nM | > 10000 nM
3 | NCI-H1155 (Non-Small Cell Lung Carcinoma) | > 3000 nM | > 10000 nM | > 3000 nM | 5970 nM | > 3000 nM | > 10000 nM | 4.68 nM | > 1000 nM | > 1 nM | 8340 nM | > 2000 nM | 541 nM | 617 nM | > 1000 nM | > 1000 nM | > 10000 nM | 9880 nM | > 10000 nM | > 1000 nM | > 1000 nM | > 1000 nM | 49.1 nM | > 10000 nM | > 10000 nM | > 10000 nM | > 300 nM | > 10000 nM
4 | NCI-H1563 (Lung Adenocarcinoma) | > 3000 nM | > 10000 nM | 2270 nM | > 10000 nM | > 3000 nM | > 10000 nM | > 300 nM | > 1000 nM | > 1 nM | > 10000 nM | 1120 nM | > 1000 nM | > 1000 nM | > 1000 nM | > 1000 nM | > 10000 nM | > 10000 nM | > 10000 nM | > 1000 nM | > 1000 nM | > 1000 nM | > 1000 nM | > 10000 nM | 2480 nM | > 10000 nM | > 300 nM | > 10000 nM
5 | NCI-H1623 (Lung Adenocarcinoma) | > 3000 nM | > 10000 nM | > 3000 nM | 8050 nM | > 3000 nM | > 10000 nM | 7.47 nM | > 1000 nM | > 1 nM | > 10000 nM | > 2000 nM | > 1000 nM | > 1000 nM | 163 nM | 229 nM | 714 nM | > 10000 nM | > 10000 nM | > 1000 nM | > 1000 nM | > 1000 nM | 89.5 nM | > 10000 nM | 340 nM | 902 nM | > 300 nM | > 10000 nM
6 | OCI-AML5 (Acute Myeloid Leukemia) | 543 nM | 2120 nM | > 3000 nM | 2240 nM | > 3000 nM | > 10000 nM | 9.54 nM | 50.6 nM | > 1 nM | > 10000 nM | > 2000 nM | 323 nM | 658 nM | 58.8 nM | 28.9 nM | > 10000 nM | 1130 nM | 6640 nM | 42.7 nM | 18.6 nM | > 1000 nM | 13.4 nM | > 10000 nM | 2190 nM | > 10000 nM | > 300 nM | 2410 nM
7 | OVTOKO (Ovarian Carcinoma) | 2100 nM | > 10000 nM | 2650 nM | > 10000 nM | > 3000 nM | > 10000 nM | > 300 nM | > 1000 nM | > 1 nM | 8520 nM | 56.4 nM | 948 nM | > 1000 nM | > 1000 nM | > 1000 nM | > 10000 nM | > 10000 nM | > 10000 nM | > 1000 nM | > 1000 nM | > 1000 nM | 714 nM | > 10000 nM | 693 nM | > 10000 nM | > 300 nM | > 10000 nM
8 | RERF-LC-KJ (Lung Adenocarcinoma) | > 3000 nM | > 10000 nM | > 3000 nM | > 10000 nM | > 3000 nM | > 10000 nM | 240 nM | > 1000 nM | > 1 nM | > 10000 nM | > 2000 nM | 83.7 nM | > 1000 nM | > 1000 nM | > 1000 nM | > 10000 nM | > 10000 nM | > 10000 nM | > 1000 nM | > 1000 nM | > 1000 nM | > 1000 nM | > 10000 nM | 6500 nM | > 10000 nM | > 300 nM | > 10000 nM
